# Source: patent US4473583A, “Compositions containing certain derivatives of 4-phenyl-4-oxobuten-2-oic acid and methods of treatment using them” (Roussel UCLAF, priority 1981, dated 1984)
# Legend:
# [1] = tested on: stomach ulcers; test: anti-ulcer activity, stress ulcer (stress and cold); assay type: in vivo; settings: female rats, stress and cold (8° C., two hours), 10 mg/kg through an esophageal tube, 2 hours before stress
# Method: (2) Determination of the anti-ulcer activity Stress Ulcer
# The technique consists of inducing stomach ulcers by stress in rats (stress and cold). The technique used is described by E. C. SENAY and R. J. LEVINE, Proc. Soc. Exp. Biol. 124, 1221 (1967).
# Female rats of 150 g (5 animals per lot) were used which has been fasting for 48 hours with water ad libitum and glucose solution for 8 hours. Through an esophageal tube, the animals received a test compound, or a solution of 0.5% carboxy methyl cellulose in the case of the control animals. Two hours later, the animals were bundled in a jacket of netting. Their paws were bound and the entire unit was placed in a refrigerator at 8° C. for two hours. The rats were freed and killed by ether.
# Their stomachs were removed, opened along the greater curvature and examined with a binocular magnifier. The seriousness of the lesions was graded from 1 to 3 for each stomach.
# For each lot of rats, the average intensity of the ulcerations was calculated. The degree of ulceration for test animals was compared with the control animals for each lot.
# [2] = acute toxicity (LD50); settings: mouse, in vivo; mice, oral
# Method: (3) Determination of the Acute Toxicity
# The LD50 was evaluated after the administration of the products orally to mice.
# [3] = tested on: total acidity of the gastric secretions; test: anti-gastric secretion activity (pylorus ligation, Shay technique); assay type: in vivo; settings: male rats, pylorus ligated, 10 mg/kg intraduodenally, 3 hours
# Method: (1) Determination of the anti-gastric secretion activity
# The technique used is described by H. SHAY et al. in Gastroenterology 5, 43, 1945.
# Male rats were used having a weight of about 200 g (10 animals per lot), and were kept without food for 48 hours but allowed a 8% gluclose solution ad libitum. After the rats were slightly anesthetized with ether, the pylorus of each was ligated. After the end of the operation, the product to be tested in different doses or, in the case of the control animals a solution of 0.5% carboxymethyl cellulose, was administered intraduodenally, after which the abdominal incision sutured.
# Three hours later, the animals were sacrified and their stomachs removed after ligating the esophagus. The gastric juice was removed and centrifuged. The volume of gastric juice obtained was then determined and the total acidity of the gastric juice was obtained by titrating a 100 μl sample of gastric juice to a pH of 7 by means of 1/10 N sodium hydroxide solution.
# The percentages of the variation of the total acidity of the gastric secretions, between test animals and control animals were calculated and are set forth in the table appearing below.
SMILES,Anti-ulcer activity: Ulceration (% variation as compared with the controls) [1],LD50 [2],Anti-secretion activity: Acid Concentration (% variation as compared with the controls) [3]
"O=C(O)/C=C/C(=O)c1ccccc1 [Example 1, (E) 4-phenyl-4-oxobuten-2-oic acid]",-54%,250 mg/kg,-66%
"Cc1ccc(C(=O)C=CC(=O)O)cc1 [Example 2, 4-tolyl-4-oxobuten-2-oic acid]",-39%,250 mg/kg,-61%
"O=C(O)/C=C\C(=O)c1ccccc1 [Example 3, (Z) 4-phenyl-4-oxobuten-2-oic acid]",-93%,370 mg/kg,-81%
